# Data as given in patent publication US10179160B2, “Therapeutic compositions for the treatment of dry eye disease” (SCHEPENS EYE RESEARCH INSTITUTE, priority 2010, dated 2019).
# Columns and labels:
# DED mice [1] = assay: Enumeration of CD11b+ cells in DED corneas (immunohistochemistry); format: in vivo
# From the text: (§1) Eight to ten week-old female C57BLI6 mice (Charles River Laboratory, Wilmington, Mass.) were used in accordance with the standards in the ARVO Statement for the Use of Animals in Ophthalmic and Vision Research. The research protocol was approved by the Schepens Eye Research Institute Animal Care and Use Committee. Dry eye was induced in murine eyes using a Controlled Environment Chamber (CEC) which exposes the mice to high-flow desiccated air. […]
# (§2) Freshly excised corneas were washed in PBS, fixed in acetone for 15 minutes and then double stained with CD31 and LYVE-1 as described previously. To analyze infiltration of CD11b^+/LYVE-1 cells, corneas from three mice from each group were taken and cells were counted in 5-6 areas in the periphery ([…] area from the limbus) of each cornea in a masked fashion, using epifluorescence microscope (model E800; Nikon, Melville, N.Y.) at 40× magnification. The mean number of cells was obtained by averaging the total number of cells in all the areas studied and the result was expressed as the number of positive cells per mm^2.
# (§3) Anti-VEGF-C antibodies (VGX-100; Vegenics Limited, Australia) were administered intraperitonealy daily from day 1 to day 10 to DED mice. Mice were assessed clinically using corneal fluorescent staining. […]
# DED mice [2] = assay: Real-time PCR of proinflammatory cytokines in conjunctiva of DED mice; format: in vivo
# From the text: (§4) Eight to ten week-old female C57BLI6 mice (Charles River Laboratory, Wilmington, Mass.) were used in accordance with the standards in the ARVO Statement for the Use of Animals in Ophthalmic and Vision Research. The research protocol was approved by the Schepens Eye Research Institute Animal Care and Use Committee. Dry eye was induced in murine eyes using a Controlled Environment Chamber (CEC) which exposes the mice to high-flow desiccated air. To achieve maximum ocular surface dryness, the conditions in CEC were supplemented with topical application of 1% atropine sulfate (Falcon Pharma, Fort Worth, Tex.) twice for the first 48 hours and subcutaneous injections of 0.1 ml of 5 mg/ml of scopolamine hydrobromide (Sigma-Aldrich, St. Louis, Mo.) three times a day, for the entire duration of the experiment.
# (§5) Five mice (10 eyes) were included in each group. Two corneas were pooled together to equal as one sample and stored at −80′C in Trizol (Invitrogen, Carlsbad, Calif.; catalog No. 15596026) until future use. Total RNA was isolated from these corneas using the RNeasy microkit (Qiagen, Valencia, Calif.; catalog No. 74004). Equal amounts of RNA were used to synthesize cDNA using SuperScript™ III Reverse Trancriptase (Invitrogen, Carlsbad, Calif.; catalog No. 18080) according to the manufacturer's recommendations. Real-Time PCR was performed using FAM-MGB dye labeled predesigned primers (Applied Biosystem, Foster City, Calif.) for GAPDH (assay ID.Mm999999 15_g1), VEGF-A (Mm00437304_m1), VEGF-C (Mrn00437313_m1), VEGF-D (Mm00438965_m1), VEGFR-2 (Mm00440099_m1), VEGFR-3 (Mm00433337_m1). 2.5 μl of cDNA was loaded in each well and assays were performed in duplicate. The GAPDH gene was used as the endogenous reference for each reaction. The results were normalized by the cycle threshold (CT) of GAPDH and the relative mRNA level in the normal mice was used as the normalized control.
# (§6) Anti-VEGF-C antibodies (VGX-100; Vegenics Limited, Australia) were administered intraperitonealy daily from day 1 to day 10 to DED mice. Mice were assessed clinically using corneal fluorescent staining. Tissues from cornea, conjunctiva and draining lymph nodes were examined for cellular and molecular pathological changes.
# (§7) Real time PCR was performed to quantify expression of different VEGF growth factors (VEGF-A, VEGF-C, VEGF-D) and their receptors (VEGFR-2, VEGFR-3) in the cornea at days 6, 10 and 14 (FIG. 8) and to determine the levels of proinflammatory cytokines.
# DED mice [3] = assay: Corneal lymphangiogenesis (lymphatic growth) in DED mice; conditions: in vivo blockade of VEGF-C in DED mice
# From the text: as §1, §2
# Morphology of lymphatics was analyzed using an automated image analysis program written with Matlab (The Mathworks, Inc., Natick, Mass.). […] The resultant isolated lymphatic vessels were analyzed morphologically using two metrices, Lymphatic Area (LA) and Lymphatic Caliber (LC). […]
# DED mice [4] = assay: Corneal fluorescein staining / clinical signs in experimental dry eye murine model; format: in vivo; conditions: for clinical signs of DED / disease severity: anti-VEGF-C-treated vs untreated DED mice
# From the text: as §4, §6
# Corneal lymphatics play an important role in mediating the corneal inflammation in dry eyes. Experiments: To validate this, inhibition of corneal neolymphangiogenesis was performed in a well characterized mouse model of DED described above. To see if inhibition of corneal neolymphangiogenesis could decrease ocular surface inflammation, anti-VEGF-C antibodies were administered i.p. daily from day −1 to day 10 to DED mice and assessed clinically using corneal fluorescein staining.
# Methods (as described previously): Induction of Dry Eye Disease. Experimental Dry Eye Murine Model. Assessment of Corneal Surface: Corneal Fluorescein Staining. Immunohistochemistry: Monocyte/macrophage marker—CD11b; Pan-endothelial marker—CD31; Lymphatic endothelial marker—LYVE-1; Blood vessels: CD31^hi/LYVE-1; Lymph vessels: CD31^lo/LYVE-1^hi. Morphometry of Lymphangiogenesis: Automated image analysis program written using Mat lab. Lymphatic Area (LA)—total surface area of the lymphatic vessels when projected into the plane of the image. Lymphatic Caliber (LC)—measure of the diameters of the lymphatic vessels.
# Anti-VEGF-C antibody and treatment regimen. Experimental design: Three groups: Normal, DE group treated with IP normal Saline (Untreated) and DE group treated with anti-VEGF-C antibody (VGX-100; a gift from Vegenics, Australia). Daily IP application of anti-VEGF-C antibody/Normal saline from day −1 to day 13. Dose: […] (20 mg/kg) in […] of Normal Saline.
# DED mice [5] = assay: Real-time PCR of IL-17 and IFN-γ in draining lymph nodes of DED mice; format: in vivo; conditions: anti-VEGF-C treated vs untreated DED mice
# From the text: as §4
# Five mice (10 eyes) were included in each group. […]
# as §3, §7
# DED mice [6] = assay: Real-time PCR of pro-lymphangiogenic growth factors and receptors in DE corneas; format: in vivo; conditions: VEGF-C blockade in DED mice
# From the text: as §4
# as §5, with “The results were normalized by the cycle threshold (CT) of GAPDH and the relative mRNA level in the normal mice was used as the normalized control.” left out
# as §7
# [7] = real-time PCR, anti-VEGF-C treated vs untreated DED mice
substance,measurement,setting,value
"VGX-100: human anti-VEGF-C monoclonal antibody produced by hybridoma ATCC PTA-4095, heavy/light chains SEQ ID NO: 48/49; from Vegenics",corneal infiltration of CD11b+ cells,DED mice [1]; VEGF-C blockade in DED mice,decrease
same,decrease of infiltration of CD11b+ cells in the DED corneas,DED mice [1]; day 14,30%
same,mRNA expression levels of proinflammatory cytokines in the conjunctiva,DED mice [2]; VEGF-C blockade in DED mice,decrease
same,IL-1α expression in conjunctiva,DED mice [2]; [7],significantly decreased expression
same,IL-1β expression in conjunctiva,DED mice [2]; [7],significantly decreased expression
same,IL-6 expression in conjunctiva,DED mice [2]; [7],significantly decreased expression
same,IL-17 expression in conjunctiva,DED mice [2]; [7],significantly decreased expression
same,corneal lymphangiogenesis / lymphatic growth,DED mice [3],suppresses
same,corneal lymphangiogenesis / lymphatic growth,DED mice [3]; listed as anti-VEGF-C,suppression
same,corneal epitheliopathy,DED mice [4]; VEGF-C blockade in DED mice,decrease
same,Corneal fluorescein staining (CFS) score,"DED mice [4]; anti-VEGF-C Ab-treated vs untreated DED mice, days 5, 9 and 13, daily IP, 20 mg/kg",significantly decreased
same,clinical signs of DED / disease severity,DED mice [4]; daily IP,ameliorates
same,clinical signs of DED / disease severity,"DED mice [4]; daily IP, listed as anti-VEGF-C",significant decrease
same,"IFN-γ (Th1 cells) in draining lymph nodes, induction of T-cell mediated autoimmune response",DED mice [5],significantly decreased induction
same,"IL-17 (Th17 cells) in draining lymph nodes, induction of T-cell mediated autoimmune response",DED mice [5],significantly decreased induction
same,expression of VEGF-C in DE corneas,DED mice [6],decrease
same,expression of VEGF-D in DE corneas,DED mice [6],decrease
same,expression of VEGFR-3 (R3) in DE corneas,DED mice [6],decrease
